# In publication PMC5537347, “A short D-enantiomeric antimicrobial peptide with potent immunomodulatory and antibiofilm activity against multidrug-resistant Pseudomonas aeruginosa and Acinetobacter baumannii” (Scientific Reports, 2017):
# Where two headings read alike, the source gives them in different places.
# Columns and labels:
# [1] = system: intracellular P. aeruginosa PAO1; assay type: cell-based; conditions: PAO1, 24 h, 8
# Protocol: (§1) Figure 2 Intracellular antibacterial activity of peptides in infected murine macrophage cells (J774A.1). […] Statistical analysis was calculated using one-way ANOVA, with post hoc Tukey’s multiple comparisons test. P < 0.05 was considered significant. One asterisk (*) indicates significance from the negative control. Results are expressed as means from three biological replicates ± standard deviation.
# (§2) In order to assess the peptides’ ability to kill intracellular bacteria, murine macrophages (J774A.1) were infected, as described in previous studies[31]–[33], [42], [48]–[51]. Briefly, J774A.1 cells were seeded and incubated as described above for the toxicity assessment. Following incubation, cells were infected with either P. aeruginosa PAO1 or A. baumannii ATCC 19606 (multiplicity of infection 100:1) in DMEM + 10% FBS for two hours. After infection, the wells were washed with 200 µL of media containing gentamicin (50 µg/ml) and further incubated for 30 minutes with gentamicin to kill extracellular bacteria. […] Medium alone was used as a negative control. After incubation, the media was aspirated and washed twice with PBS to remove any residual test agent. Next, 100 µL of PBS containing 0.01% triton X-100 was added to lyse the J774 cells. Subsequently, bacteria were diluted and plated on TSA plates. Plates were incubated at 37 °C for 16 hours. After incubation, bacteria were enumerated and analyzed. The experiment was repeated twice. The average percent reduction of bacterial growth for each treatment regimen has been reported.
# [2] = system: intracellular A. baumannii ATCC 19606; assay type: cell-based; conditions: ATCC 19606, 24 h, 8
# Protocol: as §1, §2
# [3] = system: murine macrophages (J774.1A); experiment: Cytotoxicity, MTS assay; conditions: for EC50: 24 h
# Protocol: (§3) A significant limitation for translating AMPs into clinical applications is their toxicity to host (mammalian) cells. Herein, we evaluated the cytotoxic effects of our peptide constructs against murine macrophages (J774.1A) and human keratinocytes (HaCaT cells), via the MTS assay.
# (§4) The peptides were assayed for potential in vitro toxicity against human keratinocytes (HaCaT) and murine macrophage cells (J774A.1), as described before, with the following modifications. Cells were treated with peptides at different concentrations for 24 hours. The therapeutic index of the peptides was calculated as the ratio of mammalian EC50 (the concentration of peptide that inhibited growth of 50% of the mammalian cells) to the MIC50 of peptides against bacteria.
# [4] = system: human keratinocytes (HaCaT cells); experiment: Cytotoxicity, MTS assay; conditions: for EC50: 24 h
# Protocol: as §3, §4
# [5] = system: human red blood cells; experiment: Hemolysis assay; assay type: cell-based; conditions: for HC50: red cells of human
# Protocol: Next, we assessed the hemolytic activity of the peptides on human red blood cells (RBCs).
# Peptides were assayed for hemolytic activity against human red blood cells, as described previously.
# [6] = system: C. elegans strain glp-4;sek 1; experiment: Toxicity of peptides in uninfected C. elegans; assay type: in vivo, Caenorhabditis elegans; conditions: worms grown four days with peptide; D-RR4 and colistin at 8 × MIC
# Protocol: To test the efficacy of the synthetic peptides to protect against infections in vivo, we utilized a C. elegans model of bacterial infection. This model has been used extensively for early-stage evaluation of promising antimicrobials, [35], [36]. Initially, the lethal dose of D-RR4 against uninfected nematodes was determined.
# (A) Evaluation of toxicity of peptides in Caenorhabditis elegans. C. elegans strain glp-4;sek 1 was grown for four days in the presence of peptides at different concentrations. Worms were monitored daily and the live worms were counted. Results are expressed as a Kaplan-Meier survival curve. (B) Evaluation of antimicrobial activity of peptides to reduce the bacterial CFU inside infected Caenorhabditis elegans. C. elegans strain glp-4; sek 1 were infected with P. aeruginosa PAO1, colistin-resistant P. aeruginosa 1109, or A. baumannii ATCC BAA-1605. […] After treatment, worms were lysed and bacteria were counted. One asterisk (*) indicates significant difference with the negative control. Two asterisks (**) indicates significant difference with the monotherapy treatment (P < 0.05). Results are expressed as means from three biological replicates ± standard deviation. (C) Efficacy of peptides in a Caenorhabditis elegans model of bacterial infection. […] Worms were monitored daily and the live worms were counted. Results are expressed as a Kaplan-Meier survival curve. C. elegans receiving no treatment served as a negative control.
# [7] = system: colistin-resistant P. aeruginosa isolated from cystic fibrosis patients
# Source text: (§5) The broth microdilution technique was utilized to assess the MIC of designed peptides according to the guidelines of the Clinical and Laboratory Standards Institute (CLSI)[37].
# [8] = system: P. aeruginosa and A. baumannii isolates
# Source text: as §5
# [9] = system: P. aeruginosa PAO1; experiment: Inner (cytoplasmic) membrane permeabilization assay (propidium iodide); assay type: cell-based; conditions: D-RR4 5 × and 10 × MIC, LL-37 10 × MIC
# Protocol: Damage of the bacterial inner (cytoplasmic) membrane by peptides was monitored by measuring the fluorescence intensity of P. aeruginosa PAO1 combined with propidium iodide and then subsequently treated with D-RR4.
# Damage of the bacterial inner (cytoplasmic) membrane after exposure to peptides was evaluated using propidium iodide, as described elsewhere[47].
# Data are presented as means ± standard error of the means
# indicated by propidium iodide fluorescence.
# Each experiment was performed in duplicate, and the
# values represent means ± standard deviation.
# [10] = system: A. baumannii; assay type: cell-based
# [11] = system: P. aeruginosa PAO1; experiment: MIC after treatment with proteases; assay type: cell-based; conditions: 50 mM Tris-HCl pH 7.4, 37 °C, four hours
# Protocol: To examine the ability of peptides to resist proteolytic digestion by mammalian and bacterial proteases, RR4 and D-RR4 were incubated with trypsin or proteinase K at a molar ratio of 500: 1 (peptide: enzyme), respectively, in digestion buffer (50 mM Tris–HCl, pH 7.4) at 37 °C for four hours, as described previously.
# [12] = system: P. aeruginosa PAO1 biofilm; experiment: Disruption of established biofilms, microtiter dish crystal violet assay; assay type: cell-based; conditions: for biofilm mass disrupted: mature (24 hour) biofilm, 24 hours at 37 °C, crystal violet OD 595 nm
# Protocol: (§6) Figure 1 Efficacy of peptides on established biofilms of P. aeruginosa PAO1 and A. baumannii ATCC BAA-1605. […] After incubation, wells were washed and biofilms were stained with 0.5% (w/v) crystal violet for 30 minutes. The dye was solubilized with ethanol (95%) and the optical density (595 nm) of the biofilm mass was measured. Experiments were repeated twice independently and the average values are reported.
# (§7) To examine the peptides’ ability to disrupt bacterial biofilms, the microtiter dish biofilm formation assay was employed[41]–[43].
# [13] = system: A. baumannii ATCC BAA-1605 biofilm; experiment: as above; assay type: cell-based; conditions: mature (24 hour) biofilm
# Protocol: as §6, §7
# [14] = colistin-resistant isolated from cystic fibrosis patients
# [15] = colistin-resistant isolates of Table 3
smiles,measurement,setting,value
CC[C@@H](C)[C@@H](NC(=O)[C@@H](CCCNC(=N)N)NC(=O)[C@@H](CCCNC(=N)N)NC(=O)[C@@H](CC(C)C)NC(=O)[C@@H](Cc1c[nH]c2ccccc12)NC(=O)[C@@H](C)NC(=O)[C@@H](CCCCN)NC(=O)[C@H](NC(=O)[C@@H](CCCNC(=N)N)NC(=O)[C@@H](CCCNC(=N)N)NC(=O)[C@@H](CC(C)C)NC(=O)[C@H](N)Cc1c[nH]c2ccccc12)[C@H](C)CC)C(=O)N[C@H](CCCCN)C(=O)N[C@H](C)C(N)=O [D-RR4],intracellular bacteria killed,[1],96.00% ± 1.15
same,intracellular bacteria killed,[2],100.00% ± 0.00
same,EC50,[3],64 µM
same,Therapeutic index (TI),"[3]; EC50 (J774.1) over MIC50, 512 µM used where no cytotoxicity at […]",32
same,EC50,[4],64 µM
same,Therapeutic index (TI),"[4]; EC50 (HaCaT) over MIC50, 512 µM used where no cytotoxicity at […]",32
same,Therapeutic index (TI) RBCs,[5]; HC50 over MIC50,128
same,HC50,[5],256 µM
same,toxicity to uninfected worms,[6],not toxic
same,MIC50,[7]; [14],4 µM
same,MIC90,[7]; [14],16 µM
same,MIC50,[8],2 µM
same,MIC90,[8],4 µM
same,MIC against all tested bacterial strains,[8],2 to 8 µM
"CC[C@H](C)[C@H](NC(=O)[C@H](CCCCN)NC(=O)[C@H](CCC(=O)O)NC(=O)[C@H](CCCCN)NC(=O)[C@H](CO)NC(=O)[C@H](CCCCN)NC(=O)[C@H](CCCNC(=N)N)NC(=O)[C@H](Cc1ccccc1)NC(=O)[C@H](Cc1ccccc1)NC(=O)[C@H](CC(=O)O)NC(=O)CNC(=O)[C@H](CC(C)C)NC(=O)[C@@H](N)CC(C)C)C(=O)NCC(=O)N[C@@H](CCCCN)C(=O)N[C@@H](CCC(=O)O)C(=O)N[C@@H](Cc1ccccc1)C(=O)N[C@@H](CCCCN)C(=O)N[C@@H](CCCNC(=N)N)C(=O)N[C@H](C(=O)N[C@H](C(=O)N[C@@H](CCC(N)=O)C(=O)N[C@@H](CCCNC(=N)N)C(=O)N[C@H](C(=O)N[C@@H](CCCCN)C(=O)N[C@@H](CC(=O)O)C(=O)N[C@@H](Cc1ccccc1)C(=O)N[C@@H](CC(C)C)C(=O)N[C@@H](CCCNC(=N)N)C(=O)N[C@@H](CC(N)=O)C(=O)N[C@@H](CC(C)C)C(=O)N[C@H](C(=O)N1CCC[C@H]1C(=O)N[C@@H](CCCNC(=N)N)C(=O)N[C@H](C(=O)N[C@@H](CCC(=O)O)C(=O)N[C@@H](CO)C(=O)O)[C@@H](C)O)C(C)C)[C@@H](C)CC)C(C)C)[C@@H](C)CC [LL-37, reference compound]",propidium iodide fluorescence (inner membrane damage),[9],rapid and significant increase in fluorescence
same,MIC50,[7]; [15],64 µM
same,MIC90,[7]; [15],>128 µM
same,MIC,[7]; strain 1015,>128 µM
same,MIC,[7]; strain 1016,>128 µM
same,MIC,[7]; strain 1017,>128 µM
same,MIC,[7]; strain 1020,32 µM
same,MIC,[7]; strain 1109,64 µM
same,MIC,[7]; strain 1125,128 µM
same,MIC,[7]; strain 1131,16 µM
same,MIC,[7]; strain 1133,32 µM
same,MIC,[7]; strain 1571,16 µM
same,MIC,[7]; strain 1603,32 µM
same,MIC,[7]; strain 16011,>128 µM
same,MIC50,[8]; MIC that inhibited growth of 50% of all isolates (Table 2),4 µM
same,MIC90,[8]; MIC that inhibited growth of 90% of all isolates (Table 2),32 µM
same,MIC,[10]; strain ATCC 19606,2 µM
same,MIC,[10]; strain ATCC BAA-747,8 µM
same,MIC,[10]; strain ATCC BAA-1605,4 µM
same,MIC,[10]; strain NR-9667,4 µM
same,MIC,[10]; strain NR-13374,4 µM
same,MIC,[10]; strain NR-13375,4 µM
same,MIC,[10]; strain NR-13382,4 µM
same,MIC,[10]; strain NR-17777,4 µM
same,MIC,[10]; strain NR-17778,4 µM
same,MIC,[10]; strain NR-17780,4 µM
same,MIC,[10]; strain NR-17783,4 µM
same,MIC,[10]; strain NR-17784,4 µM
same,MIC,[10]; strain NR-17785,4 µM
same,MIC,[10]; strain NR-17786,4 µM
same,MIC,[10]; strain NR-19298,2 µM
same,MIC,[10]; strain NR-19299,8 µM
CC[C@H](C)[C@H](NC(=O)[C@H](CCCNC(=N)N)NC(=O)[C@H](CCCNC(=N)N)NC(=O)[C@H](CC(C)C)NC(=O)[C@H](Cc1c[nH]c2ccccc12)NC(=O)[C@H](C)NC(=O)[C@H](CCCCN)NC(=O)[C@@H](NC(=O)[C@H](CCCNC(=N)N)NC(=O)[C@H](CCCNC(=N)N)NC(=O)[C@H](CC(C)C)NC(=O)[C@@H](N)Cc1c[nH]c2ccccc12)[C@@H](C)CC)C(=O)N[C@@H](CCCCN)C(=O)N[C@@H](C)C(=O)O [RR4],intracellular bacteria killed,[1],14.60% ± 5.50
same,intracellular bacteria killed,[2],25.00% ± 8.90
same,EC50,[3],64 µM
same,EC50,[4],128 µM
same,Therapeutic index (TI) RBCs,[5],64
same,HC50,[5],256 µM
same,MIC,[11]; after Proteinase K 1:500 (peptide:enzyme 500:1),> 64 µM
same,MIC,[11]; after Trypsin 1:500 (peptide:enzyme 500:1),> 64 µM
same,MIC50,[7]; [14],8 µM
same,MIC90,[7]; [14],32 µM
same,MIC50,[8],4 µM
same,MIC90,[8],8 µM
same,improvement in the MIC over RR,[8]; MIC50 and MIC90,16 fold
same,biofilm mass reduced,"[12]; 0.5× to 1 × MIC, respectively",20–35%
same,biofilm mass disrupted,[12]; 4 × MIC,more than 31%
same,biofilm mass disrupted,[12]; 8 × MIC,> 39%
same,biofilm mass disrupted,[12]; 16 × MIC,> 41%
same,biofilm mass disrupted,[12]; 32 × MIC,> 61%
same,biofilm-disrupting activity,[13],concentration-dependent activity
